Test results as given in US6214340A, “Physiologically active substance sulphostin, process for producing the same, and use thereof” (Zaidan Hojin Biseibutsu Kagaku Kenkyu Kai, priority 1997, dated 2001).

Test: Solubility (physicochemical properties)
Text: The physicochemical properties of the thus obtained physiologically active substance sulphostin are shown below.
4) Solubility: soluble in water and insoluble in lower alcohol, acetone, ethyl acetate, hexane and petroleum ether.

## NC1CCCN(P(N)(=O)NS(=O)(=O)O)C1=O (centres unmarked) [sulphostin]
In lower alcohol, acetone, ethyl acetate, hexane and petroleum ether
  Solubility: insoluble
In water
  Solubility: soluble
